Consider 27 molecules from the NIST ThermoML archive (doi:10.1016/j.jct.2013.08.030).

Numbers after ± are expanded uncertainties.

The data set can be described thus: activity coefficient (dimensionless); of the first substance listed, at infinite dilution; xn = mol fraction of the nth substance listed. The settings on record: 101 kPa, Liquid, Chromatography, x1 = 0.

`C1CCCCC1` [cyclohexane] + CCCC[N+]1(C)CCOCC1.N#C[C-](C#N)C#N: the activity coefficient (318.15 K) came to 22.6 ± 1.5; the activity coefficient (328.15 K) was 20.8 ± 1.4; the activity coefficient (338.15 K) worked out at 19.3 ± 1.3; the activity coefficient (348.15 K) came out at 18 ± 1.2; the activity coefficient (358.15 K) is 16.9 ± 1.2; the activity coefficient (368.15 K) is 16 ± 1.1.

Turning to `COC(C)(C)C` [2-methoxy-2-methylpropane] + CCCC[N+]1(C)CCOCC1.N#C[C-](C#N)C#N, the activity coefficient runs as follows: (318.15 K) 5.74 ± 0.39; (328.15 K) 5.77 ± 0.39; (338.15 K) 5.74 ± 0.39; (348.15 K) 5.76 ± 0.39; (358.15 K) 5.77 ± 0.39; (368.15 K) 5.78 ± 0.39.

`CCCCCCCCCC` [decane] + CCCC[N+]1(C)CCOCC1.N#C[C-](C#N)C#N: the activity coefficient by setting is: (318.15 K) 289 ± 20; (328.15 K) 251 ± 17; (338.15 K) 224 ± 15; (348.15 K) 202 ± 14; (358.15 K) 183 ± 13; (368.15 K) 166 ± 11.

In the case of `CC(C)(C)O` [2-methylpropan-2-ol] + CCCC[N+]1(C)CCOCC1.N#C[C-](C#N)C#N, the activity coefficient (318.15 K) was determined as 2 ± 0.14; the activity coefficient (328.15 K) was determined as 1.88 ± 0.13; the activity coefficient (338.15 K) was 1.77 ± 0.12; the activity coefficient (348.15 K) stood at 1.69 ± 0.11; the activity coefficient (358.15 K) amounted to 1.63 ± 0.11; the activity coefficient (368.15 K) came out at 1.58 ± 0.1.

`CC(C)CC(C)(C)C` [2,2,4-trimethylpentane] + CCCC[N+]1(C)CCOCC1.N#C[C-](C#N)C#N: the activity coefficient was 103 ± 7 (318.15 K); 93.4 ± 6.4 (328.15 K); 84.2 ± 5.8 (338.15 K); 76.9 ± 5.3 (348.15 K); 70.8 ± 4.9 (358.15 K); 64.5 ± 4.4 (368.15 K).

On to `C#CCCCCC` [1-heptyne] + CCCC[N+]1(C)CCOCC1.N#C[C-](C#N)C#N, for which the activity coefficient runs as follows: (318.15 K) 8.28 ± 0.56; (328.15 K) 8.26 ± 0.56; (338.15 K) 8.2 ± 0.56; (348.15 K) 8.2 ± 0.56; (358.15 K) 8.13 ± 0.55; (368.15 K) 8.05 ± 0.55.

Regarding `CCCO` [propan-1-ol] + CCCC[N+]1(C)CCOCC1.N#C[C-](C#N)C#N, the activity coefficient by setting is: (318.15 K) 1.62 ± 0.11; (328.15 K) 1.52 ± 0.1; (338.15 K) 1.43 ± 0.09; (348.15 K) 1.35 ± 0.09; (358.15 K) 1.29 ± 0.08; (368.15 K) 1.23 ± 0.08.

As to `CCOC(C)=O` [ethyl acetate] + CCCC[N+]1(C)CCOCC1.N#C[C-](C#N)C#N, the activity coefficient (318.15 K) was found to be 1.88 ± 0.13; the activity coefficient (328.15 K) was 1.9 ± 0.13; the activity coefficient (338.15 K) came out at 1.92 ± 0.13; the activity coefficient (348.15 K) worked out at 1.93 ± 0.13; the activity coefficient (358.15 K) was 1.96 ± 0.13; the activity coefficient (368.15 K) was 1.98 ± 0.13.

For `CC(C)OC(C)C` [diisopropyl ether] + CCCC[N+]1(C)CCOCC1.N#C[C-](C#N)C#N, the activity coefficient (318.15 K) was determined as 17.8 ± 1.2; the activity coefficient (328.15 K) worked out at 17.4 ± 1.2; the activity coefficient (338.15 K) came to 16.8 ± 1.1; the activity coefficient (348.15 K) stood at 16.5 ± 1.1; the activity coefficient (358.15 K) came out at 16 ± 1.1; the activity coefficient (368.15 K) came out at 15.6 ± 1.1.

As for `CC1CCCCC1` [methylcyclohexane] + CCCC[N+]1(C)CCOCC1.N#C[C-](C#N)C#N, the activity coefficient (318.15 K) was found to be 35.2 ± 2.4; the activity coefficient (328.15 K) turned out to be 32.3 ± 2.2; the activity coefficient (338.15 K) was 29.7 ± 2; the activity coefficient (348.15 K) came out at 27.6 ± 1.9; the activity coefficient (358.15 K) was determined as 25.7 ± 1.8; the activity coefficient (368.15 K) turned out to be 24 ± 1.6.

In the case of `CC(C)CO` [2-methyl-1-propanol] + CCCC[N+]1(C)CCOCC1.N#C[C-](C#N)C#N, the activity coefficient is, setting by setting: (318.15 K) 2.19 ± 0.15; (328.15 K) 2.03 ± 0.14; (338.15 K) 1.87 ± 0.13; (348.15 K) 1.74 ± 0.12; (358.15 K) 1.65 ± 0.11; (368.15 K) 1.56 ± 0.1.

For the molecule `C#CCCCCCC` [1-octyne] + CCCC[N+]1(C)CCOCC1.N#C[C-](C#N)C#N, the activity coefficient reads like this: (318.15 K) 12.8 ± 0.9; (328.15 K) 12.6 ± 0.9; (338.15 K) 12.4 ± 0.8; (348.15 K) 12.2 ± 0.8; (358.15 K) 12 ± 0.8; (368.15 K) 11.8 ± 0.8.

As to `CCCCO` [butan-1-ol] + CCCC[N+]1(C)CCOCC1.N#C[C-](C#N)C#N, the activity coefficient stood at 2.18 ± 0.15 (318.15 K); 2.04 ± 0.14 (328.15 K); 1.91 ± 0.13 (338.15 K); 1.79 ± 0.12 (348.15 K); 1.7 ± 0.11 (358.15 K); 1.61 ± 0.11 (368.15 K).

`C#CCCCC` [1-hexyne] + CCCC[N+]1(C)CCOCC1.N#C[C-](C#N)C#N: the activity coefficient reads like this: (318.15 K) 5.47 ± 0.37; (328.15 K) 5.5 ± 0.37; (338.15 K) 5.5 ± 0.37; (348.15 K) 5.54 ± 0.38; (358.15 K) 5.53 ± 0.38; (368.15 K) 5.51 ± 0.38.

Turning to `CCC(C)(C)C` [2,2-dimethylbutane] + CCCC[N+]1(C)CCOCC1.N#C[C-](C#N)C#N, the activity coefficient by setting is: (318.15 K) 56.7 ± 3.9; (328.15 K) 49.8 ± 3.4; (338.15 K) 44.5 ± 3; (348.15 K) 40.9 ± 2.8; (358.15 K) 37.7 ± 2.6; (368.15 K) 34.8 ± 2.4.

In the case of `CO` [methanol] + CCCC[N+]1(C)CCOCC1.N#C[C-](C#N)C#N, the activity coefficient (318.15 K) turned out to be 0.825 ± 0.053; the activity coefficient (328.15 K) came to 0.79 ± 0.051; the activity coefficient (338.15 K) worked out at 0.762 ± 0.05; the activity coefficient (348.15 K) was 0.729 ± 0.048; the activity coefficient (358.15 K) came out at 0.704 ± 0.047; the activity coefficient (368.15 K) came to 0.677 ± 0.046.

Regarding `C=Cc1ccccc1` [styrene] + CCCC[N+]1(C)CCOCC1.N#C[C-](C#N)C#N, the activity coefficient (318.15 K) was 1.82 ± 0.12; the activity coefficient (328.15 K) was determined as 1.86 ± 0.13; the activity coefficient (338.15 K) came out at 1.9 ± 0.13; the activity coefficient (348.15 K) is 1.93 ± 0.13; the activity coefficient (358.15 K) amounted to 1.96 ± 0.13; the activity coefficient (368.15 K) stood at 1.99 ± 0.14.

As to `C1CCCCCC1` [cycloheptane] + CCCC[N+]1(C)CCOCC1.N#C[C-](C#N)C#N, the activity coefficient by setting is: (318.15 K) 28.1 ± 1.9; (328.15 K) 26 ± 1.8; (338.15 K) 24 ± 1.6; (348.15 K) 22.5 ± 1.5; (358.15 K) 21 ± 1.4; (368.15 K) 19.7 ± 1.3.

As to `CC#N` [acetonitrile] + CCCC[N+]1(C)CCOCC1.N#C[C-](C#N)C#N, the activity coefficient (318.15 K) is 0.617 ± 0.043; the activity coefficient (328.15 K) is 0.62 ± 0.043; the activity coefficient (338.15 K) is 0.624 ± 0.043; the activity coefficient (348.15 K) was 0.624 ± 0.043; the activity coefficient (358.15 K) turned out to be 0.629 ± 0.043; the activity coefficient (368.15 K) was determined as 0.63 ± 0.044.

`Cc1ccccc1C` [1,2-dimethylbenzene] + CCCC[N+]1(C)CCOCC1.N#C[C-](C#N)C#N: the activity coefficient (318.15 K) is 2.96 ± 0.2; the activity coefficient (328.15 K) is 2.99 ± 0.2; the activity coefficient (338.15 K) is 3.02 ± 0.21; the activity coefficient (348.15 K) turned out to be 3.04 ± 0.21; the activity coefficient (358.15 K) came out at 3.07 ± 0.21; the activity coefficient (368.15 K) was 3.08 ± 0.21.

As for `C#CCCC` [1-pentyne] + CCCC[N+]1(C)CCOCC1.N#C[C-](C#N)C#N, the activity coefficient is 3.69 ± 0.25 (318.15 K); 3.73 ± 0.25 (328.15 K); 3.75 ± 0.26 (338.15 K); 3.8 ± 0.26 (348.15 K); 3.81 ± 0.26 (358.15 K); 3.83 ± 0.26 (368.15 K).

`CC(C)O` [propan-2-ol] + CCCC[N+]1(C)CCOCC1.N#C[C-](C#N)C#N: the activity coefficient amounted to 1.71 ± 0.11 (318.15 K); 1.59 ± 0.11 (328.15 K); 1.5 ± 0.1 (338.15 K); 1.4 ± 0.09 (348.15 K); 1.33 ± 0.09 (358.15 K); 1.25 ± 0.08 (368.15 K).

Consider `Cc1ccc(C)cc1` [1,4-dimethylbenzene] + CCCC[N+]1(C)CCOCC1.N#C[C-](C#N)C#N, for which the activity coefficient stood at 3.49 ± 0.24 (318.15 K); 3.52 ± 0.24 (328.15 K); 3.54 ± 0.24 (338.15 K); 3.57 ± 0.24 (348.15 K); 3.59 ± 0.24 (358.15 K); 3.63 ± 0.25 (368.15 K).

In the case of `C=CCCCCC` [1-heptene] + CCCC[N+]1(C)CCOCC1.N#C[C-](C#N)C#N, the activity coefficient amounted to 34.1 ± 2.3 (318.15 K); 32 ± 2.2 (328.15 K); 30.2 ± 2.1 (338.15 K); 28.7 ± 2 (348.15 K); 27.2 ± 1.9 (358.15 K); 25.7 ± 1.8 (368.15 K).

Turning to `CCCC(=O)OC` [methyl butanoate] + CCCC[N+]1(C)CCOCC1.N#C[C-](C#N)C#N, the activity coefficient by setting is: (318.15 K) 2.42 ± 0.16; (328.15 K) 2.46 ± 0.17; (338.15 K) 2.49 ± 0.17; (348.15 K) 2.51 ± 0.17; (358.15 K) 2.54 ± 0.17; (368.15 K) 2.56 ± 0.17.

Turning to `CCCCCCCC` [octane] + CCCC[N+]1(C)CCOCC1.N#C[C-](C#N)C#N, the activity coefficient is 125 ± 9 (318.15 K); 113 ± 8 (328.15 K); 102 ± 7 (338.15 K); 93.4 ± 6.4 (348.15 K); 86.5 ± 5.9 (358.15 K); 78.6 ± 5.4 (368.15 K).

Regarding `CCC(C)(C)OC` [2-methoxy-2-methylbutane] + CCCC[N+]1(C)CCOCC1.N#C[C-](C#N)C#N, the activity coefficient (318.15 K) is 8.61 ± 0.59; the activity coefficient (328.15 K) is 8.52 ± 0.58; the activity coefficient (338.15 K) stood at 8.42 ± 0.57; the activity coefficient (348.15 K) was 8.37 ± 0.57; the activity coefficient (358.15 K) stood at 8.29 ± 0.57; the activity coefficient (368.15 K) was 8.21 ± 0.56.
